Data as given in PubChem BioAssay (NCI).
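1) Cells in 96-well plates. 2) Compound, 48 h, 5 concentrations. 3) Linear interpolation between surrounding doses. 4) Unreached endpoint = highest concentration. GI50 is the concentration that inhibits growth by half. TGI is the concentration that stops growth completely.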

Key:
Test in all cases: inhibition of tumour cell growth, NCI panel, 48 h
A549 NSCLC = tested on: A549 NSCLC
OVCAR-8 ovarian = tested on: OVCAR-8 ovarian
A498 renal = tested on: A498 renal
HS 578T breast = tested on: HS 578T breast
OVCAR-5 ovarian = tested on: OVCAR-5 ovarian
RXF 393 renal = tested on: RXF 393 renal
HCT-15 colon = tested on: HCT-15 colon
SF-268 CNS = tested on: SF-268 CNS
MOLT-4 leukemia = tested on: MOLT-4 leukemia
HT29 colon = tested on: HT29 colon
UACC-257 melanoma = tested on: UACC-257 melanoma
SW-620 colon = tested on: SW-620 colon
SK-MEL-28 melanoma = tested on: SK-MEL-28 melanoma
CAKI-1 renal = tested on: CAKI-1 renal
786-0 renal = tested on: 786-0 renal
KM12 colon = tested on: KM12 colon
SNB-75 CNS = tested on: SNB-75 CNS
CCRF-CEM leukemia = tested on: CCRF-CEM leukemia
UO-31 renal = tested on: UO-31 renal
T-47D breast = tested on: T-47D breast
SK-MEL-2 melanoma = tested on: SK-MEL-2 melanoma
NCI-H522 lung = tested on: NCI-H522 lung
SK-MEL-5 melanoma = tested on: SK-MEL-5 melanoma
COLO 205 colon = tested on: COLO 205 colon
NCI-H226 lung = tested on: NCI-H226 lung
SN12C renal = tested on: SN12C renal
RPMI-8226 leukemia = tested on: RPMI-8226 leukemia
BT-549 breast = tested on: BT-549 breast
MALME-3M melanoma = tested on: MALME-3M melanoma
OVCAR-3 ovarian = tested on: OVCAR-3 ovarian
SNB-19 CNS = tested on: SNB-19 CNS
TK-10 renal = tested on: TK-10 renal
MDA-MB-468 breast = tested on: MDA-MB-468 breast
NCI-H23 lung = tested on: NCI-H23 lung
HOP-92 NSCLC = tested on: HOP-92 NSCLC
M14 melanoma = tested on: M14 melanoma
PC-3 prostate = tested on: PC-3 prostate
HCC-2998 colon = tested on: HCC-2998 colon
K-562 leukemia = tested on: K-562 leukemia
LOX IMVI melanoma = tested on: LOX IMVI melanoma
MDA-MB-231 breast = tested on: MDA-MB-231 breast
MDA-MB-435 = tested on: MDA-MB-435
HCT-116 colon = tested on: HCT-116 colon
OVCAR-4 ovarian = tested on: OVCAR-4 ovarian
HOP-62 NSCLC = tested on: HOP-62 NSCLC
HL-60(TB) leukemia = tested on: HL-60(TB) leukemia
ACHN renal = tested on: ACHN renal
DU-145 prostate = tested on: DU-145 prostate
EKVX NSCLC = tested on: EKVX NSCLC
SF-295 CNS = tested on: SF-295 CNS
NCI/ADR-RES ovarian = tested on: NCI/ADR-RES ovarian
SF-539 CNS = tested on: SF-539 CNS
UACC-62 melanoma = tested on: UACC-62 melanoma
MCF7 breast = tested on: MCF7 breast
IGROV1 ovarian = tested on: IGROV1 ovarian
SK-OV-3 ovarian = tested on: SK-OV-3 ovarian
NCI-H460 lung = tested on: NCI-H460 lung
U251 CNS = tested on: U251 CNS
SR leukemia = tested on: SR leukemia

Cc1ccc(C(=O)C(c2c[nH]c3ccccc23)c2c[nH]c3ccccc23)cc1
GI50 (A549 NSCLC): 15 µM
TGI (A549 NSCLC): 33.1 µM
GI50 (OVCAR-8 ovarian): 16.7 µM
TGI (OVCAR-8 ovarian): 34.1 µM
GI50 (A498 renal): 20.5 µM
TGI (A498 renal): 35.9 µM
GI50 (HS 578T breast): 16.6 µM
TGI (HS 578T breast): 47.1 µM
GI50 (OVCAR-5 ovarian): 14.7 µM
TGI (OVCAR-5 ovarian): 29 µM
GI50 (RXF 393 renal): 12.5 µM
TGI (RXF 393 renal): 29.6 µM
GI50 (HCT-15 colon): 4.73 µM
TGI (HCT-15 colon): 17.6 µM
GI50 (SF-268 CNS): 10.6 µM
TGI (SF-268 CNS): 25.4 µM
GI50 (MOLT-4 leukemia): 3.95 µM
TGI (MOLT-4 leukemia): 80.4 µM
GI50 (HT29 colon): 6.98 µM
TGI (HT29 colon): 22.1 µM
GI50 (UACC-257 melanoma): 13.2 µM
TGI (UACC-257 melanoma): 26.8 µM
GI50 (SW-620 colon): 3.55 µM
TGI (SW-620 colon): 13.5 µM
GI50 (SK-MEL-28 melanoma): 14.5 µM
TGI (SK-MEL-28 melanoma): 28.1 µM
GI50 (CAKI-1 renal): 9.39 µM
TGI (CAKI-1 renal): 21.4 µM
GI50 (786-0 renal): 12.9 µM
TGI (786-0 renal): 29.1 µM
GI50 (KM12 colon): 16.7 µM
TGI (KM12 colon): 31.1 µM
GI50 (SNB-75 CNS): 7.91 µM
TGI (SNB-75 CNS): 21 µM
GI50 (CCRF-CEM leukemia): 3.02 µM
TGI (CCRF-CEM leukemia): > 100 µM
GI50 (UO-31 renal): 11.3 µM
TGI (UO-31 renal): 23.4 µM
GI50 (T-47D breast): 9.57 µM
TGI (T-47D breast): 28.4 µM
GI50 (SK-MEL-2 melanoma): 14.5 µM
TGI (SK-MEL-2 melanoma): 28.7 µM
GI50 (NCI-H522 lung): 10.7 µM
TGI (NCI-H522 lung): 24.1 µM
GI50 (SK-MEL-5 melanoma): 15.5 µM
TGI (SK-MEL-5 melanoma): 29.2 µM
GI50 (COLO 205 colon): 17.1 µM
TGI (COLO 205 colon): 33 µM
GI50 (NCI-H226 lung): 13.8 µM
TGI (NCI-H226 lung): 29.4 µM
GI50 (SN12C renal): 11.1 µM
TGI (SN12C renal): 24.2 µM
GI50 (RPMI-8226 leukemia): 8.31 µM
TGI (RPMI-8226 leukemia): > 100 µM
GI50 (BT-549 breast): 12.8 µM
TGI (BT-549 breast): 26.5 µM
GI50 (MALME-3M melanoma): 16 µM
TGI (MALME-3M melanoma): 31.2 µM
GI50 (OVCAR-3 ovarian): 11.3 µM
TGI (OVCAR-3 ovarian): 23.6 µM
GI50 (SNB-19 CNS): 16.9 µM
TGI (SNB-19 CNS): 31.4 µM
GI50 (TK-10 renal): 24.8 µM
TGI (TK-10 renal): 40.6 µM
GI50 (MDA-MB-468 breast): 14.1 µM
TGI (MDA-MB-468 breast): 29 µM
GI50 (NCI-H23 lung): 11.5 µM
TGI (NCI-H23 lung): 25.9 µM
GI50 (HOP-92 NSCLC): 16.3 µM
TGI (HOP-92 NSCLC): 33.3 µM
GI50 (M14 melanoma): 12.6 µM
TGI (M14 melanoma): 29.1 µM
GI50 (PC-3 prostate): 6.96 µM
TGI (PC-3 prostate): 28.3 µM
GI50 (HCC-2998 colon): 13.7 µM
TGI (HCC-2998 colon): 27 µM
GI50 (K-562 leukemia): 3.88 µM
TGI (K-562 leukemia): > 100 µM
GI50 (LOX IMVI melanoma): 3.21 µM
TGI (LOX IMVI melanoma): 13.8 µM
GI50 (MDA-MB-231 breast): 14.1 µM
TGI (MDA-MB-231 breast): 31 µM
GI50 (MDA-MB-435): 15.1 µM
TGI (MDA-MB-435): 29.7 µM
GI50 (HCT-116 colon): 3.76 µM
TGI (HCT-116 colon): 15.2 µM
GI50 (OVCAR-4 ovarian): 13.2 µM
TGI (OVCAR-4 ovarian): 28.2 µM
GI50 (HOP-62 NSCLC): 18 µM
TGI (HOP-62 NSCLC): 42.1 µM
GI50 (HL-60(TB) leukemia): 6.82 µM
TGI (HL-60(TB) leukemia): 38.2 µM
GI50 (ACHN renal): 10.9 µM
TGI (ACHN renal): 22.8 µM
GI50 (DU-145 prostate): 14.4 µM
TGI (DU-145 prostate): 27.8 µM
GI50 (EKVX NSCLC): 13.7 µM
TGI (EKVX NSCLC): 27 µM
GI50 (SF-295 CNS): 14.8 µM
TGI (SF-295 CNS): 28.1 µM
GI50 (NCI/ADR-RES ovarian): 13.1 µM
TGI (NCI/ADR-RES ovarian): 32.2 µM
GI50 (SF-539 CNS): 15.2 µM
TGI (SF-539 CNS): 29 µM
GI50 (UACC-62 melanoma): 13.9 µM
TGI (UACC-62 melanoma): 27.9 µM
GI50 (MCF7 breast): 3.77 µM
TGI (MCF7 breast): 15.7 µM
GI50 (IGROV1 ovarian): 11.7 µM
TGI (IGROV1 ovarian): 26.5 µM
GI50 (SK-OV-3 ovarian): 15.9 µM
TGI (SK-OV-3 ovarian): 33 µM
GI50 (NCI-H460 lung): 11.2 µM
TGI (NCI-H460 lung): 28.7 µM
GI50 (U251 CNS): 15.9 µM
TGI (U251 CNS): 30.9 µM
GI50 (SR leukemia): 11 µM
TGI (SR leukemia): 77.6 µM
